# Assay results published in patent publication US20240092779A1, “USP1 INHIBITORS AND USES THEREOF” (Zentaur Therapeutics USA Inc., priority 2022, published 2024).
# What was measured:
# HCC1806 Ub-PCNA (USP1) = test: USP1 Western Blot Protocol (HCC1806 Ub-PCNA); type: cell-based; conditions: HCC1806 cells, 4 hours
# From the text: USP1 Western Blot Protocol (HCC1806 Ub-PCNA)
# USP1 is a deubiquitinase that catalyze the hydrolysis of iso-peptide bond between ubiquitin and the substrate proteins. Inhibition of USP1 activity results in accumulation of mono-ubiquitinated substrate such as Ub-PCNA. A cell assay was set up to determine the cellular potency of USP1 compounds by monitoring the accumulation of Ub-PCNA. The signal intensity was detected by a specific Ub-PCNA antibody through Western-blot analysis.
# The assay was initiated by seeding HCC1806 cells (ATCC, CRL-2335) into 6-well plates (Corning, 3516), with a seeding density of 3×10^5 cells per well and 2 mL RPMI 1640 culture medium (Gibco, 11875119). The plates were incubated overnight at 37° C. and 5% CO2. Compounds, solubilized in DMSO (Solarbio, D8371) as 1 mM stock solution, were diluted in 4-fold steps for 5-cencentration point dose response plus a no-compound DMSO control. Diluted compounds (2 μL) were transferred into assay wells (with a final DMSO concentration of −0.1%) and the resulted assay plates incubated at 37° C. and 5% CO2 for 4 hours. After aspiration of culture medium, 100 μL of 4° C. RIPA lysis buffer (Boston BioProducts, BP-115D) supplemented with vendor recommended concentrations of protease (Roche, 4693116001) and phosphatase (Roche, 4906837001) inhibitor, was added to each well and incubated for 10 minutes on the ice. Cells were scrapped loose from the bottom of well with a scraper (Corning, 3008), transferred into a 600 μL EP tube, sonicated using Ultrasound (Qsonica, Q800R3, with 30% energy, 5-second pulse on/off cycles at 4° C., for total 2 minutes), centrifuged 13,000 rpm for 15 minutes at 4° C., and then the supernatant transferred to a new 600 μL EP tube. The total protein concentration was determined using BCA kit following vendor recommended protocol (Solarbio, PC0020-500). Loading samples were prepared by diluting the total protein concentration to 1.5 μg/μL with 5 X NuPAGE SDS loading buffer (Beyotime, P0015L) and RIPA lysis buffer, and boiling at 100° C. for 5 minutes.
# 15 μg protein from each sample was loaded onto NuPAGE® Novex 4-12% Bis-Tris Midi Gel, 26 W (Invitrogen, WG1403BOX) and electrophoresis was run at 80 V for 30 minutes and 120 V till the end using 1x NuPAGE® MOPS SDS Running Buffer (Novex, NP0001). The gel was then transferred to nitrocellulose membrane using the dry transfer system (iBlot 2 Transfer Stacks, nitrocellulose, D323001) with a program consisting of 20 V for 1 minute, 23 V for 4 minutes and 25 V for 2 minutes. After the membrane was blocked with 5% BSA (Solarbio, A8020) in 1X TBST (CST, 9997S) for 1 hour at room temperature, specific antibodies (Ubiquityl-PCNA antibody (CST, 13439) at 1:500 dilution, PCNA antibody (Santa Cruz, sc-56) at 1:1000 dilution, and GAPDH (CST, 5174) at 1:2000 dilution in 1 X TBST containing 1% BSA) were added and incubated at room temperature for 1.5 hours. After washing the Nitrocellulose membranes with 1 X TBST for 3 times, 10 minutes each time at room temperature, fluorescently labeled secondary antibodies (anti-rabbit IgG, Licor, 926-32211; anti-mouse IgG, LI-COR, 926-68070) at 1:5000 dilution in 1 X TBST containing 1% BSA were added and incubated for 1 hour at room temperature in the dark. The membranes were then rinsed with 1 X TBST and immersed in the RO water. Imaging of band intensity was acquired with Li—COR imaging system (Li—COR, Odyssey clx ES).
# Percentage of USP1 inhibition (% Vehicle) was calculated by using following equation examining Ub-PCNA upregulation:
# And IC50 was calculated using four-parameter logistic fitting program • Y=Bottom+(Top-Bottom)/(1+10 {circumflex over (()}(LogIC50−X)*Hill Slope)) • X=Log of dose or concentration
# (§1) Certain compounds were tested in the assays.
# MDA-MB-436 cells = test: CTG Protocol (MDA-MB-436 GI50), antiproliferative activity; type: cell-based, human; conditions: MDA-MB-436 cells (BRCA1 mutation), 7-day incubation, CellTiter-Glo
# How it was run: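 BRCA1-mutant MDA-MB-436 cells were seeded at 1000 cells/well in DMEM, left overnight, then exposed to a 9-point, 3-fold compound series for 7 days at 37 °C, 5% CO2. Viability was read by CellTiter-Glo luminescence. % inhibition was plotted against concentration to derive GI50.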
# [1] = biological target: T1, recombinant USP1/UAF1 enzyme complex (Homo sapiens, UniProt O94782); test: Enzyme assay: deubiquitinase fluorometric assay with ubiquitin-Rhodamine substrate; type: biochemical; conditions: USP1/UAF1, Ub-Rho110 substrate, 2 hours preincubation, 1 hour reaction
# T1 construct: purchased Biortus
# Experimental: Enzymatic inhibitory potency of the compounds was assessed in a deubiquitinase fluorometric assay using ubiquitin-Rhodamine (Ub-Rho110, R&D Systems) as substrate and the recombinant USP1/UAF1 enzyme complex (Biortus). Assays were performed in a final volume of 12 μL using black 384-well plates (Corning #4514) containing 50 mM HEPES (pH 7.5, BioRoYee), 0.5 mM EDTA, 1 mM dithiothreitol, 0.1 mg/mL bovine serum albumin, 50 nM Ub-Rhol10, 0.004 nM USP1/UAF1, and series diluted compounds from 10 μM to 0.5 nM (10 dilution steps). Assay-ready plates containing 40 nL of Echo-dispensed compound in DMSO were reconstituted with 2 μL of ddH2O, then 5 μL of USP1/UAF1 enzyme mixture was added and preincubated at room temperature for 2 hours. Enzymatic reaction was initiated by the addition of […] substrate mixture and assay allowed to proceed for 1 hour at room temperature before quenching with 3 μL of 150 mM citric acid. Fluorescence signal was detected via TECAN SPARK with excitation at 485 nm and emission at 535 nm. Data analysis was done using GraphPad Prism8 and IC50 values were obtained by 4-parameter logistic curve fitting.
# as §1
# T1 sequence (O94782 whole entry): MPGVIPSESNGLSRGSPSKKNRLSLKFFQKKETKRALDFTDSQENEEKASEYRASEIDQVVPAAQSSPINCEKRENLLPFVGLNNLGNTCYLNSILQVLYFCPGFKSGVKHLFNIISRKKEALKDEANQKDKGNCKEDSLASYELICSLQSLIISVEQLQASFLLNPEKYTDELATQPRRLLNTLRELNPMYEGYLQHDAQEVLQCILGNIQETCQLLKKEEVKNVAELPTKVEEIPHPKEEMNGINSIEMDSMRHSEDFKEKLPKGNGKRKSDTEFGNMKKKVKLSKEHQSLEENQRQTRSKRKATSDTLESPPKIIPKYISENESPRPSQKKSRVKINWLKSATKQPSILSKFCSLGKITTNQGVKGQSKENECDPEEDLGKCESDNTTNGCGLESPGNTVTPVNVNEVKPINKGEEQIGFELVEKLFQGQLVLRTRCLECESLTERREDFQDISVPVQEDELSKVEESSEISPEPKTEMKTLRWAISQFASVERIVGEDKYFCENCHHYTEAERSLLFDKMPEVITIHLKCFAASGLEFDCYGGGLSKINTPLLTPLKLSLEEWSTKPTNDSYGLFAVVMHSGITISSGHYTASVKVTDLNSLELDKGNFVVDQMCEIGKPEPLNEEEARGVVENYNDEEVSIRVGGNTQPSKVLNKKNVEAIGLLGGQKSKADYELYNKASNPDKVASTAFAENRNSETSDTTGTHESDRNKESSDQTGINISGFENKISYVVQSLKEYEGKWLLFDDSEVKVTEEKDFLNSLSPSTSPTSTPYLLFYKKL
# T1 sequence (Q8TAF3 whole entry partner): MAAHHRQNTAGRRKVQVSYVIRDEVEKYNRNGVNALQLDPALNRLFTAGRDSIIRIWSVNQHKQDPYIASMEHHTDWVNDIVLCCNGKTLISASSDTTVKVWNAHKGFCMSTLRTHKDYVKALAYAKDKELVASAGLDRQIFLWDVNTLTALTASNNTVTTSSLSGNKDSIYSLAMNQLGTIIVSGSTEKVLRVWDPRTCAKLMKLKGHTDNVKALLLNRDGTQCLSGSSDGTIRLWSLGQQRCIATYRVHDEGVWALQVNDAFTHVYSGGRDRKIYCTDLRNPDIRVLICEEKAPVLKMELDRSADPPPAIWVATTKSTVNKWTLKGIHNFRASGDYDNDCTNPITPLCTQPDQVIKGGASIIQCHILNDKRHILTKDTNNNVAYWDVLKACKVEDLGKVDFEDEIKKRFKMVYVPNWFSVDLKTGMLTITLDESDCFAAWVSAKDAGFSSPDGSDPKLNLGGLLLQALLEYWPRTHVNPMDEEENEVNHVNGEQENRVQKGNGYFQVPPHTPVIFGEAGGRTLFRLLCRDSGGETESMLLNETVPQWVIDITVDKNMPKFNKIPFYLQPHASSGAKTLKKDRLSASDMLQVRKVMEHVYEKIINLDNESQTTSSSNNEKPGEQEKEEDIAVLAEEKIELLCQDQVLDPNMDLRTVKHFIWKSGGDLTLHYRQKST
IC50 (HCC1806 Ub-PCNA (USP1); Homo sapiens),"GI50 (MDA-MB-436 cells; Homo sapiens, 168 h)",IC50 [1],IC50 (HCC1806 Ub-PCNA (USP1)),GI50 (MDA-MB-436 cells),SMILES
10 to 100 nM,< 10 nM,10 to 100 nM,–,–,"COc1cc(Cn2c(=O)ccc3cnc(-c4c(OC)ncnc4C4CC4)nc32)cc(F)c1-c1nc(C(F)(F)F)cn1C1CC1 [Compound 53, 8-({4-[1-cyclopropyl-4-(trifluoromethyl)imidazol-2-yl]-3-fluoro-5-methoxyphenyl}methyl)-2-(4-cyclopropyl-6-methoxypyrimidin-5-yl)pyrido[2,3-d]pyrimidin-7-one]"
100 to 1000 nM,10 to 100 nM,10 to 100 nM,–,–,"COc1ncnc(C2CC2)c1-c1ncc2cc(CN3CCNCC3)c(=O)n(Cc3ccc(-c4nc(C(F)(F)F)cn4C)cc3)c2n1 [Compound 54, 2-(4-cyclopropyl-6-methoxypyrimidin-5-yl)-8-({4-[1-methyl-4-(trifluoromethyl)imidazol-2-yl]phenyl}methyl)-6-(piperazin-1-ylmethyl)pyrido[2,3-d]pyrimidin-7-one]"
–,–,10 to 100 nM,10 to 100 nM,10 to 100 nM,"COc1ncnc(C2CC2)c1-c1ncc2cc(CN3CCN(C)CC3)c(=O)n(Cc3ccc(-c4nc(C(F)(F)F)cn4C)cc3)c2n1 [Compound 55, 2-(4-cyclopropyl-6-methoxypyrimidin-5-yl)-8-({4-[1-methyl-4-(trifluoromethyl)imidazo]-2-yl]phenylmethyl)-6-[(4-methylpiperazin-1-yl)methyl]pyrido[2,3-d]pyrimidin-7-one]"
–,–,10 to 100 nM,100 to 1000 nM,10 to 100 nM,COc1ncnc(C2CC2)c1-c1ncc2cc(CN(C)C)c(=O)n(Cc3ccc(-c4nc(C(F)(F)F)cn4C)cc3)c2n1 [Compound 56]
10 to 100 nM,10 to 100 nM,10 to 100 nM,–,–,"COc1ncnc(C2CC2)c1-c1ncc2ccc(=O)n(Cc3ccc(-c4nc(C(F)(F)F)cn4C4COC4)cc3)c2n1 [Compound 59, 2-(4-cyclopropyl-6-methoxypyrimidin-5-yl)-8-({4-[1-(oxetan-3-yl)-4-(trifluoromethyl)imidazol-2-yl]phenyl}methyl)pyrido[2,3-d]pyrimidin-7-one]"
10 to 100 nM,–,10 to 100 nM,–,–,"COc1ncnc(C2CC2)c1-c1ncc2ccc(=O)n(Cc3ccc(-c4nc(C(F)(F)F)cn4CCO)cc3)c2n1 [Compound 60, 2-(4-cyclopropyl-6-methoxypyrimidin-5-yl)-8-({4-[1-(2-hydroxyethyl)-4-(trifluoromethyl)imidazol-2-yl]phenyl}methyl)pyrido[2,3-d]pyrimidin-7-one]"
10 to 100 nM,10 to 100 nM,10 to 100 nM,–,–,"COc1ncnc(C2CC2)c1-c1ncc2ccc(=O)n(Cc3ccc(-c4nc(C(F)(F)F)cn4CC(F)F)cc3)c2n1 [Compound 61, 2-(4-cyclopropyl-6-methoxypyrimidin-5-yl)-8-({4-[1-(2,2-difluoroethyl)-4-(trifluoromethyl)imidazol-2-yl]phenyl}methyl)pyrido[2,3-d]pyrimidin-7-one]"
> 1000 nM,100 to 1000 nM,10 to 100 nM,–,–,"COc1ncnc(C2CC2)c1-c1ncc2ccc(=O)n(Cc3ccc(-c4ncccc4F)cc3)c2n1 [Compound 65, 2-(4-cyclopropyl-6-methoxypyrimidin-5-yl)-8-{[4-(3-fluoropyridin-2-yl)phenyl]methyl}pyrido[2,3-d]pyrimidin-7-one]"
10 to 100 nM,10 to 100 nM,10 to 100 nM,–,–,"COc1cccnc1-c1ccc(Cn2c(=O)ccc3cnc(-c4c(OC)ncnc4C4CC4)nc32)cc1 [Compound 66, 2-(4-cyclopropyl-6-methoxypyrimidin-5-yl)-8-{[4-(3-methoxypyridin-2-yl)phenyl]methyl}pyrido[2,3-d]pyrimidin-7-one]"
–,–,< 10 nM,100 to 1000 nM,10 to 100 nM,COc1ncnc(C2CC2)c1-c1ncc2cc(C3=CCN(C)CC3)c(=O)n(Cc3ccc(-c4nc(C(F)(F)F)cn4C)cc3)c2n1 [Compound 68]
–,–,10 to 100 nM,10 to 100 nM,10 to 100 nM,COc1ncnc(C2CC2)c1-c1ncc2cc(C(C)=O)c(=O)n(Cc3ccc(-c4nc(C(F)(F)F)cn4C)cc3)c2n1 [Compound 69]
–,–,10 to 100 nM,10 to 100 nM,10 to 100 nM,COc1ncnc(C2CC2)c1-c1ncc2cc(C(C)(C)O)c(=O)n(Cc3ccc(-c4nc(C(F)(F)F)cn4C)cc3)c2n1 [Compound 70]
10 to 100 nM,10 to 100 nM,10 to 100 nM,–,–,"COc1cc(Cn2c(=O)ccc3cnc(-c4c(OC)ncnc4C4CC4)nc32)cc(F)c1-c1nc(C(F)(F)F)cn1C [Compound 73, 2-(4-Cyclopropyl-6-Methoxypyrimidin-5-Yl)-8-({3-Fluoro-5-Methoxy-4-[1-Methyl-4-(Trifluoromethyl)Imidazol-2-Yl]Phenyl}Methyl)Pyrido[2,3-d]Pyrimidin-7-One]"
10 to 100 nM,10 to 100 nM,10 to 100 nM,–,–,"COc1ncnc(C2CC2)c1-c1ncc2ccc(=O)n(Cc3ccc(-c4ncccc4C)cc3)c2n1 [Compound 74, 2-(4-cyclopropyl-6-methoxypyrimidin-5-yl)-8-{[4-(3-methylpyridin-2-yl)phenyl]methyl}pyrido[2,3-d]pyrimidin-7-one]"
10 to 100 nM,10 to 100 nM,10 to 100 nM,–,–,"COc1ncnc(C2CC2)c1-c1ncc2ccc(=O)n(Cc3ccc(-c4nc(F)ccc4OC(C)C)cc3)c2n1 [Compound 76, 2-(4-cyclopropyl-6-methoxypyrimidin-5-yl)-8-{[4-(6-fluoro-3-isopropoxypyridin-2-yl)phenyl]methyl}pyrido[2,3-d]pyrimidin-7-one]"
–,–,10 to 100 nM,10 to 100 nM,10 to 100 nM,COc1ncnc(C2CC2)c1-c1ncc2cc(C(F)F)c(=O)n(Cc3ccc(-c4nc(C(F)(F)F)cn4C)cc3)c2n1 [Compound 77]
10 to 100 nM,10 to 100 nM,10 to 100 nM,–,–,COc1ncnc(C2CC2)c1-c1ncc2ccc(=O)n(Cc3ccc(-c4nc(C(F)(F)F)cn4C4CC4)cc3)c2c1F [Compound 82]
